Experiments:
Genome polyprotein [1] = molecular target: Genome polyprotein (Norovirus Hu/GII.P4_GII.4/Minerva/2006/USA, UniProt A0A0K2E2J2); assay: Fret Assay
Experimental: (§1) The ability of these compounds to inhibit the NoV, specifically Minerva virus protease catalytic Cys139 covalently (IC50 and Ki) was determined with an enzyme kinetic assay. NoV strains, specifically GII.4 such as the Minerva virus are responsible for causing the majority (80%) of infections in humans. The activity of the inhibitors was evaluated by monitoring the cleavage of a FRET substrate every one minute for 20 minutes (excitation/emission: 488/520 nm) using a SpectraMax M5 microplate reader (Molecular Devices, Sunnyvale CA). Serial dilutions of each inhibitor were incubated with enzyme for 90 minutes at 37° C. before addition of the FRET substrate to ensure complete inactivation. Commercially available protease inhibitors chymostatin and rupintrivir were used as controls.

Genome polyprotein [2] = molecular target: Genome polyprotein (Hu/NV/NV/1968/US, UniProt Q83883); assay: Fret Assay
Experimental: as §1

Sequence of Genome polyprotein (Hu/NV/NV/1968/US, UniProt Q83883) (Q83883 whole entry): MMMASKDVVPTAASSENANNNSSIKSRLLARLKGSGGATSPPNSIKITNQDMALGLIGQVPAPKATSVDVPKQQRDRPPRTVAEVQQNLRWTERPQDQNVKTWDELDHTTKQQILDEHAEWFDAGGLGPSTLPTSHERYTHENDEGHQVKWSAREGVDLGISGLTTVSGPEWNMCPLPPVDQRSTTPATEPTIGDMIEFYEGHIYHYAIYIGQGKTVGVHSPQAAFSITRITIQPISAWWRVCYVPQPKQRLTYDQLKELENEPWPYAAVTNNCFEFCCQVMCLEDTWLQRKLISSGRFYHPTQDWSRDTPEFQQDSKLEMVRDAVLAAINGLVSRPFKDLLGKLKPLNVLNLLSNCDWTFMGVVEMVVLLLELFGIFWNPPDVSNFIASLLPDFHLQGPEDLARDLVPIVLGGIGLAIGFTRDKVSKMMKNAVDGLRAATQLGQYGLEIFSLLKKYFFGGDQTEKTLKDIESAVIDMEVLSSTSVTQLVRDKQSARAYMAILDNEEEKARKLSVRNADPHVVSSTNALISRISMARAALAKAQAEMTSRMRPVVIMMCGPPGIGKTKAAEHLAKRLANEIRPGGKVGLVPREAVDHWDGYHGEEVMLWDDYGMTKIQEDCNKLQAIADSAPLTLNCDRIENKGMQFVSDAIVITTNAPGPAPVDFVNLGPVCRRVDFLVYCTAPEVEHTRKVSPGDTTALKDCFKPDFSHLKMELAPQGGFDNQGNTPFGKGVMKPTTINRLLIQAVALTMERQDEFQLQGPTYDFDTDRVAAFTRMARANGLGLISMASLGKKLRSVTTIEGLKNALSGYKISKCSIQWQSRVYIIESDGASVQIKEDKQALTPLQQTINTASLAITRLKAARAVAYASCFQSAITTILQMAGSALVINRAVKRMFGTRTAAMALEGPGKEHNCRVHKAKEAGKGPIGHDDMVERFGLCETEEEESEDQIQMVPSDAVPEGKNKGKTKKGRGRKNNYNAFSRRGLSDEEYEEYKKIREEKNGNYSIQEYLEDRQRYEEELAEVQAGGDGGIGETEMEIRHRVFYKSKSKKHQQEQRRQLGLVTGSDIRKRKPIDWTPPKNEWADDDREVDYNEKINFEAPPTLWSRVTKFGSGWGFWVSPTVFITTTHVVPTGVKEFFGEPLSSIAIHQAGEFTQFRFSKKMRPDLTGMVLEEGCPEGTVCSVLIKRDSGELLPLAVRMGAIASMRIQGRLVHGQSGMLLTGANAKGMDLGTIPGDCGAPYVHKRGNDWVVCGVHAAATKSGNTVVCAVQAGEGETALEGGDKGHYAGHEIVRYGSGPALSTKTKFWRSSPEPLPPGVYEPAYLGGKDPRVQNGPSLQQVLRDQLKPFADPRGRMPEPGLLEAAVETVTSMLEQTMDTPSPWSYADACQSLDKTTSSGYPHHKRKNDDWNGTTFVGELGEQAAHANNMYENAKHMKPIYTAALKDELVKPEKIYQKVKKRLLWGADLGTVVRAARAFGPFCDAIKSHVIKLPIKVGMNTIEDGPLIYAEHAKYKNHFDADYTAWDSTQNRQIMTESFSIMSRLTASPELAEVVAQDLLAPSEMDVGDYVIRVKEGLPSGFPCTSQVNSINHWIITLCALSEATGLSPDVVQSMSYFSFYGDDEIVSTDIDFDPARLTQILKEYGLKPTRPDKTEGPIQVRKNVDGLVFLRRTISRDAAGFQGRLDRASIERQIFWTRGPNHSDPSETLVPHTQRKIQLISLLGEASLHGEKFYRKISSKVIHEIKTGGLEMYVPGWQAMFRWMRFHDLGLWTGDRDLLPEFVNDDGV
Sequence of Genome polyprotein (Norovirus Hu/GII.P4_GII.4/Minerva/2006/USA, UniProt A0A0K2E2J2) (A0A0K2E2J2 whole entry): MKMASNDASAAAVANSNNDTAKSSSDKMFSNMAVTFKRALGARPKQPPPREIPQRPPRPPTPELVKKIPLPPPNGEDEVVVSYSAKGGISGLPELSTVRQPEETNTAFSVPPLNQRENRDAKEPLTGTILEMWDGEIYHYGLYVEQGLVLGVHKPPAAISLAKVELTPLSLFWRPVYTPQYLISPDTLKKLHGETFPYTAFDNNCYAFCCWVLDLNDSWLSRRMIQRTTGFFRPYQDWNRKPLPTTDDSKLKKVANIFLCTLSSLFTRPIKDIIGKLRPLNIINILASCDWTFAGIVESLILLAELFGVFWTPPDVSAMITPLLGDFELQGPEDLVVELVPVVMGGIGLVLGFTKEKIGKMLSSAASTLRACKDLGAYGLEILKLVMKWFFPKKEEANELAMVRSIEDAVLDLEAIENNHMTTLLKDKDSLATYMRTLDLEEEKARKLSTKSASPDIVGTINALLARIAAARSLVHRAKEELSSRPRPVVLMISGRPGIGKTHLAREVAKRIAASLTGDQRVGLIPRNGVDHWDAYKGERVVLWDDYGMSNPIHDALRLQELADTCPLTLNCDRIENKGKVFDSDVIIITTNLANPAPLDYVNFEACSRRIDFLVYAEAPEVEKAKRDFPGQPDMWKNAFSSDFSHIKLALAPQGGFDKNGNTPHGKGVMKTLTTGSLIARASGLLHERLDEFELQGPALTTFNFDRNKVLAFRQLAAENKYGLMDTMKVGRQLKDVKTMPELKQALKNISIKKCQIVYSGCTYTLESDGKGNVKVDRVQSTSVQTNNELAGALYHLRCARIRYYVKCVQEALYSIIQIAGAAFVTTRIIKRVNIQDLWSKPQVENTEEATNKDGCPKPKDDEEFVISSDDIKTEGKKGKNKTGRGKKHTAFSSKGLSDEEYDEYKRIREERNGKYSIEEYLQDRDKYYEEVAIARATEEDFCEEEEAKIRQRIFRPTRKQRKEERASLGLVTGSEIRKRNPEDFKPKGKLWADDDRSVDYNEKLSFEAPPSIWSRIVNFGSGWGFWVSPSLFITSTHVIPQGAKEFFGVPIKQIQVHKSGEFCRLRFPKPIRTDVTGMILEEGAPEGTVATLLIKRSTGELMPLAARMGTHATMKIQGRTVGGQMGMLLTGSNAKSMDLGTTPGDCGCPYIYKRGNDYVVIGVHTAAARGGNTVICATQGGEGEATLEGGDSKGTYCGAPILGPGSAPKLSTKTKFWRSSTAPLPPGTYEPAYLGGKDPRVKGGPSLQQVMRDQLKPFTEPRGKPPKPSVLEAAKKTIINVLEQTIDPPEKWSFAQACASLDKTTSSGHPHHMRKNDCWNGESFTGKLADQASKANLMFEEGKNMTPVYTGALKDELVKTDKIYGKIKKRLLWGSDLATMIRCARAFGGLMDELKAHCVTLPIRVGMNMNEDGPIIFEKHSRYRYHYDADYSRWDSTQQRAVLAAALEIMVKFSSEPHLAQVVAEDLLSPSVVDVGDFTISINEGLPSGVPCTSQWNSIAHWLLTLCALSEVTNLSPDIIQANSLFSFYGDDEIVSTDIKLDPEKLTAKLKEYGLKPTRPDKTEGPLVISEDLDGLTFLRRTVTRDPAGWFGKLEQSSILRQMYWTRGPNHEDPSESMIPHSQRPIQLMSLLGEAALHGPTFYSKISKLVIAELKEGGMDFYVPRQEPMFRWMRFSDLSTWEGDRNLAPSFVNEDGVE

Row | SMILES | IC50 (Genome polyprotein [1]) | Ki (Genome polyprotein [1]) | IC50 (Genome polyprotein [2]) | Ki (Genome polyprotein [2])
1 | O=C[C@H](C[C@@H]1CCCNC1=O)NC(=O)[C@H](Cc1ccccc1)NC(=O)[C@H](Cc1cccc2ccccc12)NC(=O)OCc1ccccc1 [US11859014, Compound 83] | 482 nM |  |  | 
2 | CC(C)C[C@H](NC(=O)[C@H](Cc1ccc(F)cc1)NC(=O)OCc1ccccc1)C(=O)N[C@H](C=O)C[C@@H]1CCCNC1=O [US11859014, Compound 35] | 167 nM | 858 nM |  | 
3 | CC(C)C[C@H](NC(=O)[C@H](Cc1cccc2ccccc12)NC(=O)c1cnccn1)C(=O)N[C@H](C=O)C[C@@H]1CCCNC1=O [US11859014, Compound 23] | 204 nM |  | 96 nM | 528 nM
4 | CC(C)C[C@H](NC(=O)[C@H](Cc1cccc2ccccc12)NC(=O)OCc1ccccc1)C(=O)N[C@H](C=O)C[C@@H]1CCCNC1=O [US11859014, Compound 19] |  | 1190 nM | 80 nM | 155 nM
5 | CC(C)C[C@H](NC(=O)[C@H](Cc1cccc2ccccc12)NC(=O)OCc1ccccc1)C(=O)N[C@H](/C=C(\C#N)C(N)=O)C[C@@H]1CCCNC1=O [US11859014, Compound 36] |  | 3600 nM |  | 
6 | CC(C)C[C@H](NC(=O)[C@H](Cc1ccc(O)cc1)NC(=O)OCc1ccccc1)C(=O)N[C@H](C=O)C[C@@H]1CCCNC1=O [US11859014, Compound 11] |  | 427 nM | 44 nM | 123 nM
7 | CCOC(=O)/C=C/[C@H](C[C@@H]1CCNC1=O)NC(=O)[C@@H](CC(=O)[C@@H](NC(=O)c1cc(C)on1)C(C)C)Cc1ccc(F)cc1 [US11859014, Compound rupintrivir] | 23600 nM | 8200 nM |  | 
8 | CC(C)C[C@H](NC(=O)[C@H](Cc1cccc2ccccc12)NC(=O)c1cnccn1)C(=O)N[C@H](C=O)C[C@@H]1CCNC1=O [US11859014, Compound 29] |  | 670 nM | 112 nM | 350 nM

Reference: BindingDB's records for patent US11859014 (Emory University, 2024)
